PMC12114630 (Pharmaceuticals, 2025)

Target: T1, D4R (BRET assay) (Homo sapiens, UniProt P21917)
T1 construct: gene DRD4; expressed in HEK293T cells for BRET functional assays
T1 sequence (P21917 1-419): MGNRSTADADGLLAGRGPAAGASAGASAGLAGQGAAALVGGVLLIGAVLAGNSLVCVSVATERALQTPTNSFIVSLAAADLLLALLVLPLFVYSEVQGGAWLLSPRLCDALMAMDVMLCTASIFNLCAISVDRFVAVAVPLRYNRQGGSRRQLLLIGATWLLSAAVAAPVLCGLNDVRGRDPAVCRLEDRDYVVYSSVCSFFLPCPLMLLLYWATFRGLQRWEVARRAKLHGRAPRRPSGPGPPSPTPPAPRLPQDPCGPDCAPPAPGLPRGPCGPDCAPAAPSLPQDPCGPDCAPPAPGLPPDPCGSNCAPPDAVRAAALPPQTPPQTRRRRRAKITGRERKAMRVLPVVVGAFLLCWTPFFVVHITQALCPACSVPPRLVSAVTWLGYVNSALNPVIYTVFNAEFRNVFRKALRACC
Test: BRET Go activation, agonist mode
Assay type: cell-based
Conditions: read-out: 16 (converted)

EC50 [µM]	SMILES
0.00437	O=C1CCc2ccccc2N1CCCC1CCN(Cc2ccccc2)CC1 [compound 16, 1-(3-(1-Benzylpiperidin-4-yl)propyl)-3,4-dihydroquinolin-2(1H)-one]

Target: T2, D4R (hD4.4R) (Homo sapiens, UniProt P21917)
T2 construct: gene DRD4; human cloned receptor stably expressed in HEK293 cells; membranes
T2 sequence (P21917 1-419): T1 sequence (P21917 1-419)
Test: [3H]N-methylspiperone competition, membranes
Assay type: binding
Conditions: read-out: pKi / D4R (converted)
Text: [3H]N-methylspiperone competition, membranes on D4R (hD4.4R)

Ki [µM]	SMILES
0.000661	O=C1CCc2ccccc2N1CCN1CCC(Cc2ccccc2)CC1 [compound 12, 1-(2-(4-Benzylpiperidin-1-yl)ethyl)-3,4-dihydroquinolin-2(1H)-one]
0.0224	O=C1CCc2ccccc2N1CCCCN1CCC(Cc2ccccc2)CC1 [compound 13, 1-(4-(4-Benzylpiperidin-1-yl)butyl)-3,4-dihydroquinolin-2(1H)-one]
0.00162	O=C1CCc2ccccc2N1CCCC1CCN(Cc2ccccc2)CC1 [compound 16, 1-(3-(1-Benzylpiperidin-4-yl)propyl)-3,4-dihydroquinolin-2(1H)-one]
0.302	O=C1CCc2ccccc2N1CCC1CCN(Cc2ccccc2)CC1 [compound 17, 1-(2-(1-Benzylpiperidin-4-yl)ethyl)-3,4-dihydroquinolin-2(1H)-one]
0.275	O=C1CCc2ccccc2N1CC1CCN(Cc2ccccc2)CC1 [compound 18, 1-((1-Benzylpiperidin-4-yl)methyl)-3,4-dihydroquinolin-2(1H)-one]

Continued, compound first:

SMILES	Ki [µM]
CCCCC1CCN(CCN2C(=O)CCc3ccccc32)CC1 [compound 9, 1-(2-(4-Butylpiperidin-1-yl)ethyl)-3,4-dihydroquinolin-2(1H)-one]	0.0174
CCCCC1CCN(CCCCN2C(=O)CCc3ccccc32)CC1 [compound 10, 1-(4-(4-Butylpiperidin-1-yl)butyl)-3,4-dihydroquinolin-2(1H)-one]	0.0234
CCCCC1CCN(CCCCCN2C(=O)CCc3ccccc32)CC1 [compound 11, 1-(5-(4-Butylpiperidin-1-yl)pentyl)-3,4-dihydroquinolin-2(1H)-one]	0.0525
O=C1CCc2ccccc2N1CCCCCN1CCC(Cc2ccccc2)CC1 [compound 14, 1-(5-(4-Benzylpiperidin-1-yl)pentyl)-3,4-dihydroquinolin-2(1H)-one]	0.0457
CCCCN1CCC(CCCN2C(=O)CCc3ccccc32)CC1 [compound 15, 1-(3-(1-Butylpiperidin-4-yl)propyl)-3,4-dihydroquinolin-2(1H)-one]	0.759
O=C1CCc2ccccc2N1CCCN1CC=C(c2ccccc2)CC1 [compound 19, 1-(3-(4-Phenyl-3,6-dihydropyridin-1(2H)-yl)propyl)-3,4-dihydroquinolin-2(1H)-one]	0.00151
O=C1CCc2ccccc2N1CCCN1CCc2ccccc2C1 [compound 20, 1-(3-(3,4-Dihydroisoquinolin-2(1H)-yl)propyl)-3,4-dihydroquinolin-2(1H)-one]	0.0282

Target: T1, D4R (BRET assay)
Test: BRET Go activation, antagonist mode
Assay type: cell-based
Conditions: read-out: 12 (converted)

IC50 [µM]	SMILES
0.214	O=C1CCc2ccccc2N1CCN1CCC(Cc2ccccc2)CC1 [compound 12, 1-(2-(4-Benzylpiperidin-1-yl)ethyl)-3,4-dihydroquinolin-2(1H)-one]

Same assay, conditions: read-out: 16 (converted)

IC50 [µM]	SMILES
0.0617	O=C1CCc2ccccc2N1CCCC1CCN(Cc2ccccc2)CC1 [compound 16, 1-(3-(1-Benzylpiperidin-4-yl)propyl)-3,4-dihydroquinolin-2(1H)-one]

Target: T3, D3R (hD3R) (Homo sapiens, UniProt P35462)
T3 construct: gene DRD3; human cloned receptor stably expressed in HEK293 cells; membranes
T3 sequence (P35462 whole entry): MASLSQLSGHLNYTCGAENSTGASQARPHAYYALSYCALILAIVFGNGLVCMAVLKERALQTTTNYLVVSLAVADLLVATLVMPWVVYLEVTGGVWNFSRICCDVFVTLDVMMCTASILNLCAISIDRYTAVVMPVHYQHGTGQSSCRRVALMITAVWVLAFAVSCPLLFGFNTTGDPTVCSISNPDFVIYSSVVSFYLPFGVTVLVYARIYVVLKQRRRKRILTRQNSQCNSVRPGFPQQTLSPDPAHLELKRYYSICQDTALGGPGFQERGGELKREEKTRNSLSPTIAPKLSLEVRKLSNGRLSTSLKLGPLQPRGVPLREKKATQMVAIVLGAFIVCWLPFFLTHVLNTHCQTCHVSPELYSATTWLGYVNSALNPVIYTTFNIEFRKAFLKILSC
Test: [3H]N-methylspiperone competition, membranes
Assay type: binding
Conditions: read-out: pKi / D3R (converted)
Text: [3H]N-methylspiperone competition, membranes on D3R (hD3R)

Ki [µM]	SMILES
0.933	O=C1CCc2ccccc2N1CCN1CCC(Cc2ccccc2)CC1 [compound 12, 1-(2-(4-Benzylpiperidin-1-yl)ethyl)-3,4-dihydroquinolin-2(1H)-one]
0.302	O=C1CCc2ccccc2N1CCCCN1CCC(Cc2ccccc2)CC1 [compound 13, 1-(4-(4-Benzylpiperidin-1-yl)butyl)-3,4-dihydroquinolin-2(1H)-one]
2	O=C1CCc2ccccc2N1CCCC1CCN(Cc2ccccc2)CC1 [compound 16, 1-(3-(1-Benzylpiperidin-4-yl)propyl)-3,4-dihydroquinolin-2(1H)-one]
8.13	O=C1CCc2ccccc2N1CCC1CCN(Cc2ccccc2)CC1 [compound 17, 1-(2-(1-Benzylpiperidin-4-yl)ethyl)-3,4-dihydroquinolin-2(1H)-one]
7.59	O=C1CCc2ccccc2N1CC1CCN(Cc2ccccc2)CC1 [compound 18, 1-((1-Benzylpiperidin-4-yl)methyl)-3,4-dihydroquinolin-2(1H)-one]

Second part, the compound before the results:

SMILES	Ki [µM]
CCCCC1CCN(CCN2C(=O)CCc3ccccc32)CC1 [compound 9, 1-(2-(4-Butylpiperidin-1-yl)ethyl)-3,4-dihydroquinolin-2(1H)-one]	13.2
CCCCC1CCN(CCCCN2C(=O)CCc3ccccc32)CC1 [compound 10, 1-(4-(4-Butylpiperidin-1-yl)butyl)-3,4-dihydroquinolin-2(1H)-one]	0.309
CCCCC1CCN(CCCCCN2C(=O)CCc3ccccc32)CC1 [compound 11, 1-(5-(4-Butylpiperidin-1-yl)pentyl)-3,4-dihydroquinolin-2(1H)-one]	0.288
O=C1CCc2ccccc2N1CCCCCN1CCC(Cc2ccccc2)CC1 [compound 14, 1-(5-(4-Benzylpiperidin-1-yl)pentyl)-3,4-dihydroquinolin-2(1H)-one]	0.407
CCCCN1CCC(CCCN2C(=O)CCc3ccccc32)CC1 [compound 15, 1-(3-(1-Butylpiperidin-4-yl)propyl)-3,4-dihydroquinolin-2(1H)-one]	1.07
O=C1CCc2ccccc2N1CCCN1CC=C(c2ccccc2)CC1 [compound 19, 1-(3-(4-Phenyl-3,6-dihydropyridin-1(2H)-yl)propyl)-3,4-dihydroquinolin-2(1H)-one]	0.245
O=C1CCc2ccccc2N1CCCN1CCc2ccccc2C1 [compound 20, 1-(3-(3,4-Dihydroisoquinolin-2(1H)-yl)propyl)-3,4-dihydroquinolin-2(1H)-one]	0.229

Target: T4, D2R (hD2R) (Homo sapiens, UniProt P14416)
T4 construct: gene DRD2; human cloned receptor stably expressed in HEK293 cells; membranes
T4 sequence (P14416 whole entry): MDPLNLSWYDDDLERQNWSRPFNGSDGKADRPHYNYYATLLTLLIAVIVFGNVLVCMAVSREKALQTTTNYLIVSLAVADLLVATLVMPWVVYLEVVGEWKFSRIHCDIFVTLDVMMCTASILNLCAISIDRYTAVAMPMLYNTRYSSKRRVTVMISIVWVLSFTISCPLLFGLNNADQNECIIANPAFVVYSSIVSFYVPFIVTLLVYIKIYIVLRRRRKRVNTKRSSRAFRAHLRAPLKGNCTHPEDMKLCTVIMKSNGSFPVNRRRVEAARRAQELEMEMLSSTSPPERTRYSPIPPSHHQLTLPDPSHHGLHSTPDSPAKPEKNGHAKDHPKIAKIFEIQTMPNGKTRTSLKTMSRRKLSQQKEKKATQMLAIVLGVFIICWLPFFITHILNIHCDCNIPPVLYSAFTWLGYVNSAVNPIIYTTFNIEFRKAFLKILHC
Test: [3H]N-methylspiperone competition, membranes
Assay type: binding
Conditions: read-out: pKi / D2R (converted)
Text: [3H]N-methylspiperone competition, membranes on D2R (hD2R)

Ki [µM]	SMILES
0.661	O=C1CCc2ccccc2N1CCN1CCC(Cc2ccccc2)CC1 [compound 12, 1-(2-(4-Benzylpiperidin-1-yl)ethyl)-3,4-dihydroquinolin-2(1H)-one]
1.07	O=C1CCc2ccccc2N1CCCCN1CCC(Cc2ccccc2)CC1 [compound 13, 1-(4-(4-Benzylpiperidin-1-yl)butyl)-3,4-dihydroquinolin-2(1H)-one]
3.63	O=C1CCc2ccccc2N1CCCC1CCN(Cc2ccccc2)CC1 [compound 16, 1-(3-(1-Benzylpiperidin-4-yl)propyl)-3,4-dihydroquinolin-2(1H)-one]
12.6	O=C1CCc2ccccc2N1CCC1CCN(Cc2ccccc2)CC1 [compound 17, 1-(2-(1-Benzylpiperidin-4-yl)ethyl)-3,4-dihydroquinolin-2(1H)-one]
13.2	O=C1CCc2ccccc2N1CC1CCN(Cc2ccccc2)CC1 [compound 18, 1-((1-Benzylpiperidin-4-yl)methyl)-3,4-dihydroquinolin-2(1H)-one]

Second part, the compound before the results:

SMILES	Ki [µM]
CCCCC1CCN(CCN2C(=O)CCc3ccccc32)CC1 [compound 9, 1-(2-(4-Butylpiperidin-1-yl)ethyl)-3,4-dihydroquinolin-2(1H)-one]	8.91
CCCCC1CCN(CCCCN2C(=O)CCc3ccccc32)CC1 [compound 10, 1-(4-(4-Butylpiperidin-1-yl)butyl)-3,4-dihydroquinolin-2(1H)-one]	1.35
CCCCC1CCN(CCCCCN2C(=O)CCc3ccccc32)CC1 [compound 11, 1-(5-(4-Butylpiperidin-1-yl)pentyl)-3,4-dihydroquinolin-2(1H)-one]	0.302
O=C1CCc2ccccc2N1CCCCCN1CCC(Cc2ccccc2)CC1 [compound 14, 1-(5-(4-Benzylpiperidin-1-yl)pentyl)-3,4-dihydroquinolin-2(1H)-one]	0.813
CCCCN1CCC(CCCN2C(=O)CCc3ccccc32)CC1 [compound 15, 1-(3-(1-Butylpiperidin-4-yl)propyl)-3,4-dihydroquinolin-2(1H)-one]	10.2
O=C1CCc2ccccc2N1CCCN1CC=C(c2ccccc2)CC1 [compound 19, 1-(3-(4-Phenyl-3,6-dihydropyridin-1(2H)-yl)propyl)-3,4-dihydroquinolin-2(1H)-one]	0.575
O=C1CCc2ccccc2N1CCCN1CCc2ccccc2C1 [compound 20, 1-(3-(3,4-Dihydroisoquinolin-2(1H)-yl)propyl)-3,4-dihydroquinolin-2(1H)-one]	0.447
